Target: MPP1 (Manganese Porphyrin-binding Protein 1)
Assay: UV-vis absorption titration
Design: species or system synthetic construct

SMILES: C1=CC2=[N+]3C1=Cc1ccc4[n]1[Mn-]31[n]3c(ccc3=C2c2ccccc2)=CC2=[N+]1C(=C4c1ccccc1)C=C2 (stereo not shown) [Mn(III)DPP]
- Kd: 122 ± 19 nM
